Test results published in patent US12527800B2, “Therapeutic agent for Parkinson's disease” (KYOWA KIRIN CO., LTD., priority 2019, dated 2026).

Tested on: patients of Parkinson's disease experiencing motor fluctuations
Experiment: Multivariate logistic regression analysis of patient baseline factors associated with efficacy of istradefylline (odds ratios)
Type: in vivo, human
Method: The cut-off value for the treatment effect used to determine the efficacy of istradefylline was defined as a reduction in OFF time (1 hour or longer), an increase in ON time without troublesome dyskinesia (1 hour or longer), and an improvement in UPDRS Part III score (3 points or more) from the clinically meaningful point of view. […] Further, with respect to the UPDRS Part II score at OFF state, an improvement of 1 point or more from the sensitivity/(1-specificity) curve (ROC curve) using the UPDRS Part II score and the CGI-I score was defined as the cut-off of the effect.
The study of baseline factors having a favorable effect on the respective outcomes of the efficacy of istradefylline was performed by multivariate logistic regression analysis controlling for 12 baseline factors, which were expressed as the odds ratio (OR) and 95% confidence interval (CI). The efficacy outcomes included daily OFF time, ON time without troublesome dyskinesia, UPDRS Part III score at ON state, CGI-I, and UPDRS Part II score at OFF state. As covariates in the logistic regression analysis, age, sex, the presence or absence of dyskinesia history (determined based on the patient diary at baseline), mean daily OFF time, total UPDRS Part III score, mH&Y score at ON state and OFF state, concomitant drugs, duration of Parkinson's disease (duration of PD), duration of motor complications, L-DOPA dose, and levodopa-equivalent dose were used.
In this study, with respect to the outcomes under the treatment with istradefylline, analysis of baseline factors associated with expressing a more favorable effect was performed according to the following three steps. First, interactions between the treatment with istradefylline (two doses: 20 mg and 40 mg) and 12 baseline factors were evaluated based on type III p-value by multivariate logistic regression analysis (an index for evaluating whether or not the heterogeneity (interaction) occurs in the association between the treatment and the outcome due to a certain baseline factor). As the second step, an odds ratio (OR) was estimated for the baseline factor associated with the achievement of a more favorable effect according to the dose group of istradefylline if a significant interaction is observed between the treatment with istradefylline and the baseline factor. In addition, OR was estimated for the baseline factor associated with the achievement of a more favorable effect in all patient groups if an interaction is not observed between the treatment with istradefylline and the baseline factor.
A two-tailed p value <0.05 and an interaction p value <0.10 were determined to be statistically significant. All analyses were performed using SAS software version 9.2 or 9.3 (SAS Institute, Inc., Cary, N.C., USA).

[1] = age ≥65 vs <65 y (ref), 20 and 40 mg/day together
[2] = baseline UPDRS Part III score ≥20 vs <20 (ref), 20 and 40 mg/day together
[3] = baseline m Hoehn & Yahr scale at OFF state ≥3 vs <3 (ref), 20 and 40 mg/day together
[4] = baseline mean daily OFF time 4 to <8 h vs <4 h (ref), 20 mg/day
[5] = baseline mean daily OFF time 4 to <8 h vs <4 h (ref), 40 mg/day
[6] = baseline mean daily OFF time 4 to <8 h vs <4 h (ref), 20 and 40 mg/day together
[7] = baseline mean daily OFF time ≥8 h vs <4 h (ref), 20 mg/day
[8] = baseline mean daily OFF time ≥8 h vs <4 h (ref), 40 mg/day
[9] = baseline mean daily OFF time ≥8 h vs <4 h (ref), 20 and 40 mg/day together

In the case of CCn1c(=O)c2c(nc(/C=C/c3ccc(OC)c(OC)c3)n2C)n(CC)c1=O [istradefylline], the “Odds ratio, increase in ON time without troublesome dyskinesia (1 hour or longer)” value (age ≥65 vs <65 y (ref), 20 mg/day) is reported as 1.47, the “Odds ratio, increase in ON time without troublesome dyskinesia (1 hour or longer)” value (age ≥65 vs <65 y (ref), 40 mg/day) is reported as 2.88 and the “Odds ratio, OFF time reduction (1 hour or longer)” value (“Odds ratio, OFF time reduction” below) [1] is reported as 2.65. The “Odds ratio, improvement in CGI-I (very much, much or minimally improved)” value (“Odds ratio, improvement in CGI-I” below) [1] was 1.17, the “Odds ratio, improvement in UPDRS Part II score (OFF)” value (from here on “Odds ratio, improvement … (OFF)”) [1] was 0.90 and the “Odds ratio, improvement in UPDRS Part III score (3 points or more)” value (“Odds ratio, improvement … (3 points or more)” below) [1] was 0.65. For the same compound, the “Odds ratio, OFF time reduction” value [2] was 0.88, the “Odds ratio, improvement in CGI-I” value [2] was 1.49 and the “Odds ratio, improvement … (OFF)” value [2] was 0.79. For the same compound, the “Odds ratio, improvement … (3 points or more)” value [2] was 2.79, the “Odds ratio, increase in ON time without troublesome dyskinesia (1 hour or longer)” value [2] was 0.97 and the “Odds ratio, improvement … (OFF)” value (baseline m Hoehn & Yahr scale at OFF state ≥3 vs <3 (ref), 20 mg/day) was 0.99. The “Odds ratio, improvement … (OFF)” value (baseline m Hoehn & Yahr scale at OFF state ≥3 vs <3 (ref), 40 mg/day) was 3.50, the “Odds ratio, OFF time reduction” value [3] was 0.63 and the “Odds ratio, improvement in CGI-I” value [3] was 1.89. For the same compound, the “Odds ratio, improvement … (3 points or more)” value [3] was 1.81, the “Odds ratio, increase in ON time without troublesome dyskinesia (1 hour or longer)” value [3] was 0.60 and the “Odds ratio, OFF time reduction” value [4] was 1.27. For the same compound, the “Odds ratio, increase in ON time without troublesome dyskinesia (1 hour or longer)” value [4] was 1.09, the “Odds ratio, OFF time reduction” value [5] was 1.58 and the “Odds ratio, increase in ON time without troublesome dyskinesia (1 hour or longer)” value [5] was 0.58. The “Odds ratio, improvement in CGI-I” value [6] was 1.09, the “Odds ratio, improvement … (OFF)” value [6] was 1.00 and the “Odds ratio, improvement … (3 points or more)” value [6] was 0.85. For the same compound, the “Odds ratio, OFF time reduction” value [7] was 1.57, the “Odds ratio, increase in ON time without troublesome dyskinesia (1 hour or longer)” value [7] was 1.19 and the “Odds ratio, OFF time reduction” value [8] was 6.68. For the same compound, the “Odds ratio, increase in ON time without troublesome dyskinesia (1 hour or longer)” value [8] was 2.38, the “Odds ratio, improvement in CGI-I” value [9] was 0.85 and the “Odds ratio, improvement … (OFF)” value [9] was 0.98. The “Odds ratio, improvement … (3 points or more)” value [9] was 0.53.
